Tests used:
Assay type in all cases: cell membranes, Membrane; call rule not given here
[1] = target: T1, D(1A) dopamine receptor (Rattus norvegicus, UniProt P18901); assay: Inhibition of binding of [3H]SCH-23390 to Dopamine receptor D1 in rat striatal membranes
[2] = target: T2, Adrenergic receptor alpha-2 (Rattus norvegicus, UniProt P22086+P19328+P22909); assay: Inhibition of binding of [3H]rauwolscine to Alpha-2 adrenergic receptor in rat cortical membranes
T2 sequence (P22086 whole entry): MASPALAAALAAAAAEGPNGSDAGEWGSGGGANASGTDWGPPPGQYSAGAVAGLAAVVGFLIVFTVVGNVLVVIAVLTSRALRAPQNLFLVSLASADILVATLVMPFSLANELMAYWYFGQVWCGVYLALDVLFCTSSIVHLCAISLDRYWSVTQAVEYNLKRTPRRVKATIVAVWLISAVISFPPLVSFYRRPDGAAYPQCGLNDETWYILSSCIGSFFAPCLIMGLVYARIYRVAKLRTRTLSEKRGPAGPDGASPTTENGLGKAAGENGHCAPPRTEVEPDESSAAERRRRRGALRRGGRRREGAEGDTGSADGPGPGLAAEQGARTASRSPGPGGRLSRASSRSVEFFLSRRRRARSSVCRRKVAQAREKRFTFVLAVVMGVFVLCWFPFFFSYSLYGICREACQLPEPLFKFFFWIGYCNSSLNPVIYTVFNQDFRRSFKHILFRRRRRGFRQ
T2 sequence (P19328 whole entry): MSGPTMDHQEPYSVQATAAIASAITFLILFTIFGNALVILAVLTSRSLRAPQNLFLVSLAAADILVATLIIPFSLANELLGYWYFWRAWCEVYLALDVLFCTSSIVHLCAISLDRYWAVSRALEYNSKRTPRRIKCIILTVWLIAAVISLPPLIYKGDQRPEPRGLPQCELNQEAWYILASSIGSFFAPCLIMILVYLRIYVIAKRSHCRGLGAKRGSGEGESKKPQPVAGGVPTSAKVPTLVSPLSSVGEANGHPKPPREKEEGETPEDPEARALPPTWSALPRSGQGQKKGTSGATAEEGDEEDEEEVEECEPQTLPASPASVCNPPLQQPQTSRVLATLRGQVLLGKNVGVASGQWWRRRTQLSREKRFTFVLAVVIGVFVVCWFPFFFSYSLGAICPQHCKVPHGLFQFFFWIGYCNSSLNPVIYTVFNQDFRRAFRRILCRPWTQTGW
T2 sequence (P22909 whole entry): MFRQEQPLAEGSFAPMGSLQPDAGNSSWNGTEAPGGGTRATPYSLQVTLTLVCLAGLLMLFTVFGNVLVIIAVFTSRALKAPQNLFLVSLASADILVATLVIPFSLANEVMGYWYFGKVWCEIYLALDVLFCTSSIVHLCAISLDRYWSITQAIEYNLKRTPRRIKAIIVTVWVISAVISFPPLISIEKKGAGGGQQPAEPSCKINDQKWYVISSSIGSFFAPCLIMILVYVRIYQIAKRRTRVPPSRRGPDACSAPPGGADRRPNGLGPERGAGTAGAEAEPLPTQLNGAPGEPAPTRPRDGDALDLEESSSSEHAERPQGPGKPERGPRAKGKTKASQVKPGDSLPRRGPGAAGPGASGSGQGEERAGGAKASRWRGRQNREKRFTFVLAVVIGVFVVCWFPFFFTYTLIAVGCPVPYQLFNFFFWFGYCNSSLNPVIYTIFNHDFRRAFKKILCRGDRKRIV

[3] = target: T3, Adrenergic receptor alpha-1 (Rattus norvegicus, UniProt P15823+P23944+P43140); assay: Inhibition of binding of [3H]prazosin to Alpha-1 adrenergic receptor in rat cortical membranes
T3 sequence (P15823 whole entry): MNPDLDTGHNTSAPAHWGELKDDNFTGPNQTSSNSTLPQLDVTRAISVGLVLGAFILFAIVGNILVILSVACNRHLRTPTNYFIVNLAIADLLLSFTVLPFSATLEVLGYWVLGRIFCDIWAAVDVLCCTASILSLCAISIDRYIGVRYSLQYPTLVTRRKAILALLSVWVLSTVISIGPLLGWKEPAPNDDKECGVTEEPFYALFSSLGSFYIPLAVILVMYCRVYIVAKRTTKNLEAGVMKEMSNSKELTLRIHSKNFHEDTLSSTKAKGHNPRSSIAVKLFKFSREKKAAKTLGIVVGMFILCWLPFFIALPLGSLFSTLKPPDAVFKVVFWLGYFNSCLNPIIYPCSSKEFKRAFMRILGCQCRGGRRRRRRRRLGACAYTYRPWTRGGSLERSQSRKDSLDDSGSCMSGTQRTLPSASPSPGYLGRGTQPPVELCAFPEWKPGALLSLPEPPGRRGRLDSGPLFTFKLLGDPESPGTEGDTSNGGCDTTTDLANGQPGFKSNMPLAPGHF
T3 sequence (P23944 whole entry): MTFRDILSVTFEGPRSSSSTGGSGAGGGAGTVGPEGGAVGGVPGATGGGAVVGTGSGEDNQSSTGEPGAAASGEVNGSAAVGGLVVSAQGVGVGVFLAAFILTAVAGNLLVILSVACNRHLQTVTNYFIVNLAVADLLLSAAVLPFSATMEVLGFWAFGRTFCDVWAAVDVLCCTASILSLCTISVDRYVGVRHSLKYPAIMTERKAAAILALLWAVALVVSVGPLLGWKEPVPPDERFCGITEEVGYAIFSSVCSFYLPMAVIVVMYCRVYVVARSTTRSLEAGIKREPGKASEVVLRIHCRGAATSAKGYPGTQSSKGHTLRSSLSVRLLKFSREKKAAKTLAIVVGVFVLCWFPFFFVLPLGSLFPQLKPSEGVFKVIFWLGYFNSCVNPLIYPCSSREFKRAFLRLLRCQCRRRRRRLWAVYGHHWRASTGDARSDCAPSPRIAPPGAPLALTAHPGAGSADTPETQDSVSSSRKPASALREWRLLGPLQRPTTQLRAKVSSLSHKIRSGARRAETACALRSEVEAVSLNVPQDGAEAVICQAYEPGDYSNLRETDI
T3 sequence (P43140 whole entry): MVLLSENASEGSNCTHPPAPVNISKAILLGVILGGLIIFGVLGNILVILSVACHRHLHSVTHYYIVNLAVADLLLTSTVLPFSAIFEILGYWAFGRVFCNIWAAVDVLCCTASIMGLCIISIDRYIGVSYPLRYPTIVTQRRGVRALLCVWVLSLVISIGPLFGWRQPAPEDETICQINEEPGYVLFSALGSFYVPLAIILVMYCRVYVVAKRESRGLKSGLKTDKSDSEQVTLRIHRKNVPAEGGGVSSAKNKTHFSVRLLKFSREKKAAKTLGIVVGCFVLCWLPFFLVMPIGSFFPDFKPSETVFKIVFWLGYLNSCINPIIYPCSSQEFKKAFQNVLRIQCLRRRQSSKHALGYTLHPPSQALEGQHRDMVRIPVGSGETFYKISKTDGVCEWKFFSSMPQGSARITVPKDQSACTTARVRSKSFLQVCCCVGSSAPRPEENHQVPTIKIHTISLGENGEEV

[4] = target: T4, D(2) dopamine receptor (Rattus norvegicus, UniProt P61169); assay: Inhibition of binding of [3H]spiroperidol to Dopamine receptor D2 in rat striatal membranes at 5 uM concentration; NA is not active
T4 sequence (P61169 whole entry): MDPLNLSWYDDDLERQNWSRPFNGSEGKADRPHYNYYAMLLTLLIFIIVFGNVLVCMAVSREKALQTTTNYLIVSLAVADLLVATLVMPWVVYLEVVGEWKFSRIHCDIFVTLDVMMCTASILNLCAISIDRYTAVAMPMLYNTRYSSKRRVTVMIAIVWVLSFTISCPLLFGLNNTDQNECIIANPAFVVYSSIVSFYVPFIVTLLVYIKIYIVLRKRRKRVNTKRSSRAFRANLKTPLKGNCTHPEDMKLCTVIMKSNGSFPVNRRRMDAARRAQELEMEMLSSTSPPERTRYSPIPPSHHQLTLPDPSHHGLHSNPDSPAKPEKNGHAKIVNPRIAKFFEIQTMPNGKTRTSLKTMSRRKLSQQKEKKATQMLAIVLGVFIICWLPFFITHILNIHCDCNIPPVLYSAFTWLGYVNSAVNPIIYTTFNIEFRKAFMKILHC

[5] = target: T1, D(1A) dopamine receptor; assay: Inhibition of binding of [3H]SCH-23390 to Dopamine receptor D1 in rat striatal membranes at 5 uM concentration; NA is not active
[6] = target: T4, D(2) dopamine receptor; assay: Inhibition of binding of [3H]spiroperidol to Dopamine receptor D2 in rat striatal membranes

T1 sequence (P18901 whole entry): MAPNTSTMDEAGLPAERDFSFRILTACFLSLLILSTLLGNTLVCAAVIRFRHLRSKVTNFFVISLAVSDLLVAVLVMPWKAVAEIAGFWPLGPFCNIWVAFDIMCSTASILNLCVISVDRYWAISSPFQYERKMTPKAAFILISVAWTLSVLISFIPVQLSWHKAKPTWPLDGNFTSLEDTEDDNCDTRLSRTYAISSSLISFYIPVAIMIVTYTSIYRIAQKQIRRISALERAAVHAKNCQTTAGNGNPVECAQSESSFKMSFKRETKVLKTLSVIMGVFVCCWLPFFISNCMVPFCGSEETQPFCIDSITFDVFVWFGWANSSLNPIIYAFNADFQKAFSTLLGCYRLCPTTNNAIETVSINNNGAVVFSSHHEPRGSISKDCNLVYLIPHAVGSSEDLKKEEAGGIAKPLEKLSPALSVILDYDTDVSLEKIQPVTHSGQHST

| Structure (SMILES) | IC50 [1] [µM] | IC50 [2] [µM] | IC50 [3] [µM] | IC50 [4] | IC50 [5] | IC50 [6] [µM] |
| --- | --- | --- | --- | --- | --- | --- |
| c1ccc(CN2CCCC3Cc4ccccc4CC32)cc1 (stereo in doubt; trans) | 1.2 | 5.9 | 218 | Not Active |  |  |
| c1ccc(CN2CCCC3Cc4ccccc4CC32)cc1 (stereo in doubt; cis) |  | 214 | 739 |  | Not Active |  |
| NC1CCc2c(ccc(O)c2O)C1 (racemic) |  |  |  |  |  | 0.7 |
| COc1cccc2c1CC1CCCNC1C2 (trans isomer) |  | 67.5 |  | Not Active | Not Active |  |
| COc1cccc2c1CC1CCCN(Cc3ccccc3)C1C2 (stereo in doubt; cis) |  | 38 | 667 | Not Active | Not Active |  |
| COc1cccc2c1CC1CCCN(Cc3ccccc3)C1C2 (stereo in doubt; trans) | 0.45 | 6 | 588 |  |  |  |
| c1ccc2c(c1)CC1CCCNC1C2 (stereo unspecified) |  | 130 |  | Not Active | Not Active |  |

— ChEMBL document CHEMBL1134008, “Cis- and trans-N-benzyl-octahydrobenzo[g]quinolines. Adrenergic and dopaminergic activity studies” (Bioorg Med Chem Lett, 2001)
